From patent US6310095A, “Inhibitors of protein isoprenyl transferases” (University of Pittsburgh, priority 1998, dated 2001) come the findings set out here.

Where a name gives a salt, the structure may show the parent alone.

For one assay, the target named is T1, protein farnesyltransferase (Rattus norvegicus, UniProt Q02293+Q04631).
T1 construct: Rat brain protein farnesyltransferase activity is measured; from tissue; host or cells: rat brain; purified according to Reiss et al., Cell 62:81-88 (1990), steps one through three
Nature of the assay: in vitro inhibition of protein farnesyltransferase (scintillation proximity assay, biotin-K Ras B fragment). The class given is biochemical. To be noted: at 1 × 10^-6 M. The method, boiled down:
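Scintillation proximity read-out of farnesylation, using a biotinylated K Ras B fragment (0.1 mM final) in place of biotin-lamin. Enzyme purified from rat brain; results given as % inhibition.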
For orientation: SPA uses beads or plates that emit light when radiolabelled molecules are held near them.
`CSCC[C@H](NC(=O)c1ccc(S(=O)(=O)NCCCn2ccnc2)cc1-c1ccccc1C)C(=O)O` [Example 777]: the “% inhibition of farnesyltransferase” value worked out at 83%.

As to `CSCC[C@H](NC(=O)c1ccc(-c2ccccc2-c2ccccc2)cc1-c1ccccc1C)C(=O)[O-].[Li+]` [Example 786], the “% inhibition of farnesyltransferase” value amounted to 34%.

For the compound `CSCC[C@H](NC(=O)c1ccc(-c2cccc(-c3ccccc3)c2)cc1-c1ccccc1C)C(=O)[O-].[Li+]` [Example 787], the “% inhibition of farnesyltransferase” value is 70%.

`CSCC[C@H](NC(=O)c1ccc(-c2ccc(-c3ccccc3)cc2)cc1-c1ccccc1C)C(=O)[O-].[Li+]` [Example 788]: the “% inhibition of farnesyltransferase” value was 44%.

As to `CSCC[C@H](NC(=O)c1ccc(C[C@H]2CC[C@@H](c3ccccc3)CC2)cc1-c1ccccc1C)C(=O)O` [Example 790], the “% inhibition of farnesyltransferase” value is 88%.

As to `CSCC[C@H](NC(=O)c1ccc(/C=C/c2ccccc2)cc1-c1ccccc1C)C(=O)O` [Example 791], the “% inhibition of farnesyltransferase” value is reported as 53%.

As to `CSCC[C@H](NC(=O)c1ccc(CCc2cccc(-c3ccccc3)c2)cc1-c1ccccc1C)C(=O)[O-].[Li+]` [Example 793], the “% inhibition of farnesyltransferase” value amounted to 94%.

On to `CSCC[C@H](NC(=O)c1ccc(COC2CCN(Cc3ccccc3)CC2)cc1-c1ccccc1C)C(=O)O` [Example 807], for which the “% inhibition of farnesyltransferase” value came out at 90%.

In the case of `CSCC[C@H](NC(=O)c1ccc(COC2CCN(C(=O)OC(C)(C)C)CC2)cc1-c1ccccc1C)C(=O)[O-].[Li+]` [Example 808], the “% inhibition of farnesyltransferase” value turned out to be 88%.

`CSCC[C@H](NC(=O)c1ccc(COC2(Cc3ccccc3)CCN(C(=O)OC(C)(C)C)CC2)cc1-c1ccccc1C)C(=O)[O-].[Li+]` [Example 809]: the “% inhibition of farnesyltransferase” value is 78%.

On to `CSCC[C@H](NC(=O)c1ccc(/C=C/c2ccc(Oc3ccccc3)nn2)cc1-c1ccccc1C)C(=O)O` [Example 810], for which the “% inhibition of farnesyltransferase” value is 89%.

For `CSCC[C@H](NC(=O)c1ccc(/C=C/c2cnc(Oc3ccccc3)cn2)cc1-c1ccccc1C)C(=O)O` [Example 812], the “% inhibition of farnesyltransferase” value came to 94%.

`CSCC[C@H](NC(=O)c1ccc(CCc2cnc(Oc3ccccc3)cn2)cc1-c1ccccc1C)C(=O)O` [Example 813]: the “% inhibition of farnesyltransferase” value worked out at 95%.

On to `CSCC[C@H](NC(=O)c1ccc(COC2(c3ccccc3)CCN(C(=O)OC(C)(C)C)CC2)cc1-c1ccccc1C)C(=O)[O-].[Li+]` [Example 816], for which the “% inhibition of farnesyltransferase” value worked out at 87%.

Turning to `CSCC[C@H](NC(=O)c1ccc(CN2CCC[C@H]2COCc2ccccc2)cc1-c1ccccc1C)C(=O)O` [Example 824], the “% inhibition of farnesyltransferase” value is 90%.

Still in this assay, the particulars now being: at 1 × 10^-6 M; read-out: % inhibition of farnesyltransferase.
For `CSCC[C@H](NC(=O)c1ccc(CN(Cc2ccc(C(F)(F)F)cc2)c2ccccc2)cc1-c1ccccc1C)C(=O)O` [Example 782, N-[4-N-(N-phenyl-N-(4-trifluoromethylbenzyl)aminomethyl)-2-(2-methylphenyl)-benzoyl]methionine lithium salt], the inhibition (as a rule, the percentage by which the read-out fell short of the control) at 1 µM is 96%.

Regarding `CSCC[C@H](NC(=O)c1ccc(CN(Cc2ccco2)C(C)C)cc1-c1ccccc1C)C(=O)O` [Example 831, N-[4-N-(furan-2-ylmethyl)-N-isopropylaminomethyl-2-(2-methylphenyl)benzoyl]methionine lithium salt], the inhibition at 1 µM worked out at 92%.

As for `CSCC[C@H](NC(=O)c1ccc(CN(Cc2ccoc2)C(C)C)cc1-c1ccccc1C)C(=O)O` [Example 832, N-[4-N-(furan-3-ylmethyl)-N-isopropylainomethyl-2-(2-methylphenyl)benzoyl]methionine lithium salt], the inhibition at 1 µM worked out at 80%.

As for `CSCC[C@H](NC(=O)c1ccc(CN(Cc2ccccc2)Cc2ccccc2)cc1-c1ccccc1)C(=O)O` [Example 834, N-[4-N,N-dibenzylaminomethyl-2-phenylbenzoyl]methionine lithium salt], the inhibition at 1 µM stood at 55%.

For the compound `CSCC[C@H](NC(=O)c1ccc(CN(CCc2ccccc2)C(C)C)cc1-c1ccccc1C)C(=O)O` [Example 835, N-[14-N-(2-phenylethyl)-N-isoprolpylaminomethyl-2-(2-methylphenyl)benzoyl]methionine lithium salt], the inhibition at 1 µM amounted to 96%.

The assay is the same for the next values; noted with them: at 1 × 10^-7 M.
Regarding `CSCC[C@H](NC(=O)c1ccc(C=Cc2cncs2)cc1-c1ccccc1C)C(=O)[O-].[Li+]` [Example 785], the “% inhibition of farnesyltransferase” value stood at 96%.

For the compound `CSCC[C@H](NC(=O)c1ccc(COc2ccc(Oc3ccccc3)cc2)cc1-c1ccccc1C)C(=O)[O-].[Li+]` [Example 795], the “% inhibition of farnesyltransferase” value amounted to 87%.

Turning to `CSCC[C@H](NC(=O)c1ccc(CCc2ccc(Oc3ccccc3)nn2)cc1-c1ccccc1C)C(=O)O` [Example 811], the “% inhibition of farnesyltransferase” value worked out at 85%.

`CSCC[C@H](NC(=O)c1ccc(COC2CCC(NC(=O)OC(C)(C)C)CC2)cc1-c1ccccc1C)C(=O)[O-].[Li+]` (stereo partly shown) [Example 817]: the “% inhibition of farnesyltransferase” value stood at 60%.

`CSCC[C@H](NC(=O)c1ccc(COCc2ccc(-c3ccc(Cl)cc3)o2)cc1-c1ccccc1C)C(=O)NS(C)(=O)=O` [Example 818]: the “% inhibition of farnesyltransferase” value is reported as 78%.

In the case of `CSCC[C@H](NC(=O)c1ccc(COCC2CCC(c3ccc(Cl)cc3)O2)cc1-c1ccccc1C)C(=O)O` (stereo partly shown) [Example 822], the “% inhibition of farnesyltransferase” value stood at 93%.

As to `CCCCC(OCc1ccc(C(=O)N[C@@H](CCSC)C(=O)[O-])c(-c2ccccc2C)c1)c1ccco1.[Li+]` (stereo partly shown) [Example 825], the “% inhibition of farnesyltransferase” value stood at 79%.

The assay is the same for the next values; noted with them: at 1 × 10^-7 M; read-out: % inhibition of farnesyltransferase.
For `CSCC[C@H](NC(=O)c1ccc(CN(Cc2ccc(Cl)cc2)c2ccccc2)cc1-c1ccccc1C)C(=O)O` [Example 781, N-[4-N-(N-phenyl-N-(4-chlorobenzyl)aminomethyl)-2-(2-methylphenyl)benzoyl]methionine lithium salt], the inhibition at 0.1 µM came to 91%.

Take `COc1ccccc1N(Cc1ccccc1)Cc1ccc(C(=O)N[C@@H](CCSC)C(=O)O)c(-c2ccccc2C)c1` [Example 839, N-[4-(N-benzyl-N-(2-methoxyphenyl)aniinomethyl)-2-(2-methylphenyl)benzoyl]methionine lithium salt]: the inhibition at 0.1 µM came out at 63%.

Staying with this assay, now noted: at 1 × 10^-8 M.
As to `CSCC[C@H](NC(=O)c1ccc(COCc2ccc(-c3ccc(Cl)cc3)o2)cc1-c1ccccc1C)C(=O)NS(=O)(=O)c1ccccc1` [Example 819], the “% inhibition of farnesyltransferase” value is reported as 76%.

Turning to `CSCC[C@H](NC(=O)c1ccc(COCc2ccc(-c3ccc(C(C)C)cc3)o2)cc1-c1ccccc1C)C(=O)[O-].[Li+]` [Example 820], the “% inhibition of farnesyltransferase” value amounted to 66%.

Regarding `CSCC[C@H](NC(=O)c1ccc(COCc2ccc(-c3ccc(N(C)C)cc3)o2)cc1-c1ccccc1C)C(=O)O` [Example 821], the “% inhibition of farnesyltransferase” value was found to be 75%.

Regarding `CCCCC(OCc1ccc(C(=O)N[C@@H](CCSC)C(=O)[O-])c(-c2ccccc2C)c1)c1ccc(-c2ccc(Cl)cc2)o1.[Li+]` (stereo partly shown) [Example 826], the “% inhibition of farnesyltransferase” value is recorded as 92%.

`CSCC[C@H](NC(=O)c1ccc(COCc2occc2-c2ccc(Cl)cc2)cc1-c1ccccc1C)C(=O)[O-].[Li+]` [Example 827]: the “% inhibition of farnesyltransferase” value is reported as 77%.

`CSCC[C@H](NC(=O)c1ccc(COC(Cc2ccccc2)c2cncs2)cc1-c1ccccc1C)C(=O)[O-].[Li+]` (stereo partly shown) [Example 828]: the “% inhibition of farnesyltransferase” value worked out at 87%.

For `CSCC[C@H](NC(=O)c1ccc(COCc2oc(-c3ccc(Cl)cc3)c(Cl)c2Cl)cc1-c1ccccc1C)C(=O)[O-].[Li+]` [Example 829], the “% inhibition of farnesyltransferase” value stood at 92%.

The assay is the same for the next values; noted with them: at 1 × 10^-8 M; read-out: % inhibition of farnesyltransferase.
`COc1cccc(CN(Cc2ccc(C(=O)N[C@@H](CCSC)C(=O)O)c(-c3ccccc3C)c2)c2ccccc2)c1` [Example 779, N-[4-N-(N-phenyl-N-(3-methoxybenzyl)aniinomethyl)-2-(2-methylphenyl)benzoyl]methionine lithium salt]: the inhibition at 0.01 µM came out at 70%.

For `CSCC[C@H](NC(=O)c1ccc(CN(c2ccccc2)S(=O)(=O)c2ccc(C(F)(F)F)cc2)cc1-c1ccccc1C)C(=O)O` [Example 780, N-[4-N-(N-phenyl-N-(4-trifluoromethylbenzenesulfonyl)aminomethyl)-2-(2-methylphenal)-benzoyl]methionine lithium salt], the inhibition at 0.01 µM amounted to 71%.

Consider `COc1cccc(N(Cc2ccccc2)Cc2ccc(C(=O)N[C@@H](CCSC)C(=O)O)c(-c3ccccc3C)c2)c1` [Example 833, N-[4-N-benzyl-N-3-methoxyphenylaminomethyl-2-(2-methylphenyl)benzoyl]methionine lithium salt], for which the inhibition at 0.01 µM was determined as 78%.

Take `CSCC[C@H](NC(=O)c1ccc(CN(Cc2ccccc2)c2cncnc2)cc1-c1ccccc1C)C(=O)O` [Example 836, N-[4-N-benzyl-N-pyrimidin-5-ylaminomethyl-2-(2-methylphenyl)benzoyl]methionine lithium salt]: the inhibition at 0.01 µM was 95%.

As to `CSCC[C@H](NC(=O)c1ccc(CN(Cc2ccc3c(c2)OCO3)c2cncnc2)cc1-c1ccccc1C)C(=O)O` [Example 837, lithium salt], the inhibition at 0.01 µM is 91%.

`CSCC[C@H](NC(=O)c1ccc(CN(Cc2ccc3c(c2)OCO3)c2cnccn2)cc1-c1ccccc1C)C(=O)O` [Example 838, N-[4-N-(1,3-benzodiox-5-yl)-N-pyridizin-2-ylaminomethyl-2-(2-methylphenyl)benzoyl]methionine lithium salt]: the inhibition at 0.01 µM was determined as 92%.

The assay is the same for the next values; noted with them: read-out: % inhibition of farnesyltransferase.
On to `CCOC(=O)N1CCC(NCc2ccc(C(=O)N[C@@H](CCSC)C(=O)O)c(-c3ccccc3C)c2)CC1` [Example 806, N-[4-(1-ethoxycarbonylpiperidin-4-ylaminomethyl)-2-(2-methylphenyl)benzoyl]methionine lithium salt], for which the inhibition at 1 µM was 72%.
